Patent publication US20160287549A1, “NOVEL METHODS FOR TREATING NEURODEGENERATIVE DISEASES” (GENZYME CORPORATION, priority 2013, published 2016)

What was measured:
[1] = tested on: L1210 murine leukemia; conditions: cited from earlier work
[2] = tested on: murine colon 38 tumor model; conditions: tissue-specific modulation of uridine nucleotide pools; cited from earlier work
[3] = biological target: hDHODH (Homo sapiens, UniProt Q02127); conditions: cited from earlier work
[4] = biological target: PfDHODH (Plasmodium falciparum, UniProt Q08210); conditions: cited from earlier work
Sequence of PfDHODH (Q08210 24-569): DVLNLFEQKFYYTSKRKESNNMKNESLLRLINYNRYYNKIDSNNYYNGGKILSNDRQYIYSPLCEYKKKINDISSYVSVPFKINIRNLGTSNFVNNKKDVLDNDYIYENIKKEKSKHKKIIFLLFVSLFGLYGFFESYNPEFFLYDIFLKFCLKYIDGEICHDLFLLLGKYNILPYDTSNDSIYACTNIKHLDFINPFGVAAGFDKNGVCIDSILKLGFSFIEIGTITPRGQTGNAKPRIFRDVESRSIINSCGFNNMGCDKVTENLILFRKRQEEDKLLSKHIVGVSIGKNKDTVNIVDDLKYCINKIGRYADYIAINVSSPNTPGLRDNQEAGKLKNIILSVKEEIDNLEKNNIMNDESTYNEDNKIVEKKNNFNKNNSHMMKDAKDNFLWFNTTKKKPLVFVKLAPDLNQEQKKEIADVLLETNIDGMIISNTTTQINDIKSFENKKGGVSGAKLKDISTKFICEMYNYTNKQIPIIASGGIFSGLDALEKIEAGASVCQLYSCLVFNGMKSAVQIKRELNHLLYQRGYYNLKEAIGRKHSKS

[5] = cited from earlier work
[6] = tested on: SOD1-G93A mice; assay: Grip strength performance test in SOD1-G93A mice; format: in vivo; conditions: for grip strength loss (percent decline from baseline): 20 mg/kg oral gavage, baseline at 82 days, control 46.14-67.38% loss
Description: (§1) In a second experiment, 20 mg/kg of teriflunomide was administered to 82 day old SOD1-G93A male and female mice (n=14/sex).
Testing of motor function using a grip strength device (Columbus Instruments, Columbus, Ohio) began at 60-70 days of age as previously described (Dodge, J. C. et al. (2008) 16:1056-1064). Each weekly session consisted of 4 tests per animal. Data shown represent percent decline in strength from baseline. Baseline measurements were made at 82 days of age. Percent reduction is grip strength is shown for vehicle treated mice scored as ES and age matched sibling mice treated with teriflunomide.

[7] = tested on: SOD1-G93A mice; assay: Survival of symptomatic SOD1-G93A ALS mice; format: in vivo
Description: SOD1-G93A transgenic mice (also known as G93A-SOD1 mice) are currently the best available model to test experimental therapeutics for the treatment of ALS. […] For example, the transgenic mice present with progressive muscular atrophy and weakness. Neuroinflammation, demyelination, and motor neuron death are observed in the mice, and ultimately, the mice become paralyzed and have a shortened lifespan.
To evaluate the effectiveness of DHODH inhibitors in treating ALS, 10 mg/kg of teriflunomide was administered by oral gavage to 82 day old SOD1-G93A male mice.
as §1
Male SOD1-G93A mice (n=14) were administered W19 (subcutaneous injection at 10 mg/kg for 5 consecutive days and then every 10 mg/kg every 2 weeks thereafter) was administered starting at 82 days of age. After 7 days, peripheral blood was collected and lymphocyte depletion was evaluated using flow cytometry.
Transgenic male (n=84) and female littermate (n=28) mice that express the mutant SOD1^G93A transgene at high-levels were divided to achieve cohort, sibling and sex matching amongst groups for these studies (Scott, S., et al. “Design, Power, and Interpretation of Studies in the Standard Murine Model of ALS.” Amyotrophic Lateral Sclerosis 9.1 (2008): 4-15. SCOPUS. Web. 18 Nov. 2013). Mutant SOD1 gene copy number and SOD1 protein expression were confirmed by PCR and western blot analysis. Animals were housed under light:dark (12:12 h) cycle and provided with food and water ad libitum. All procedures were performed using protocols approved by Genzyme Corporation's Institutional Animal Care and Use Committees.
Mice were scored into the following phases: presymptomatic (Pre-SYMP)=no visible motor abnormalities (i.e., normal hind limb splay); Symptomatic (SYMP)=abnormal hindlimb splay; End stage (ES)=onset of limb paralysis (typically hindlimb); and Moribund (MB)=unable to right themselves within 30 sec after being placed on their back.

Sequence of hDHODH (Q02127 whole entry): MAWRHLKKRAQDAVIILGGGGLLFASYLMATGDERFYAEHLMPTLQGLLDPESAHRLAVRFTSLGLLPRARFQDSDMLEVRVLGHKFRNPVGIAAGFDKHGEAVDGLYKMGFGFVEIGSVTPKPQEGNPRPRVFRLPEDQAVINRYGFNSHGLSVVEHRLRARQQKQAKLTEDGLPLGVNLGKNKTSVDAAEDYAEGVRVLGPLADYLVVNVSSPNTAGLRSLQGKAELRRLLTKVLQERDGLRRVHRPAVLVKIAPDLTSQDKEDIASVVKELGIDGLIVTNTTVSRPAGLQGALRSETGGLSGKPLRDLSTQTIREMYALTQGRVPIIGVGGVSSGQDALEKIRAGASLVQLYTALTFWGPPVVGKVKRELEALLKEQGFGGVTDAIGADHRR

Cc1c(-c2ccc(-c3ccccc3F)cc2)nc2ccc(F)cc2c1C(=O)O [Brequinar]
anticancer activity [1]: exhibits anticancer activity
effect on 5-fluorouracil antitumor activity [2]: potentiates 5-fluorouracil antitumor activity

CCOC(=O)C(=CNc1cccc(C(=O)OCC)c1)C(=O)OCC [Compound 58]
hDHODH(50 μM) [3]: 5 ± 2
PfDHODH(50 μM) [4]: 0 ± 4

CCOC(=O)C(=CNc1ccc(C(=O)OCC)cc1)C(=O)OCC [Compound 59]
hDHODH(50 μM) [3]: 4 ± 2
PfDHODH(50 μM) [4]: 15 ± 4

CCOC(=O)C(C#N)=CNc1ccc(C(=O)OCC)cc1 [Compound 60]
hDHODH(50 μM) [3]: 2 ± 2
PfDHODH(50 μM) [4]: 2 ± 4

C/C(O)=C(\C#N)C(=O)Nc1ccc(C(F)(F)F)cc1 [teriflunomide, (Z)-2-cyano-3-hydroxy-but-2-enoic acid-(4′-trifluoromethylphenyl)-amide]
solubility in acetone ([5]; acetone): sparingly soluble
solubility in ethanol ([5]; ethanol): slightly soluble
solubility in isopropanol ([5]; isopropanol): very slightly soluble
solubility in polyethylene glycol ([5]; polyethylene glycol): slightly soluble
solubility in water ([5]; water): practically insoluble
grip strength loss (percent decline from baseline) ([6]; female SOD1-G93A mice): −24.06%
grip strength loss (percent decline from baseline) ([6]; male SOD1-G93A mice): −20.14%
effect on muscle strength loss ([6]; 20 mg/kg, male and female SOD1-G93A mice): significantly slowed muscle strength loss
increase in survival as compared to control ([7]; 10 mg/kg oral gavage, 82 day old male SOD1-G93A mice): 7 days
median survival ([7]; 10 mg/kg oral gavage, 82 day old male SOD1-G93A mice, control 127 days, p<0.005): 134 days
median survival ([7]; 20 mg/kg oral gavage, 82 day old male and female SOD1-G93A mice, control 130 days, p<0.04): 146.5 days
increase in median survival as compared to control ([7]; 20 mg/kg, 82 day old male and female SOD1-G93A mice): 16.5 days
